# Data taken from patent US20060069132A1, “Azolecarboxamide herbicides” (priority 2004, published 2006).
# How the values were obtained:
# wild oat = assay: Test C postemergence herbicide test; type: in vivo, Avenafatua
# Experimental: (§1) At the same time, plants selected from these crop and weed species and also winter barley (Hordeum vulgare L.), blackgrass (Alopecurus myosuroides Huds.), canarygrass (Phalaris minor Retz.), chickweed (Stellaria media (L.) Vill.), downy bromegrass (Bromus tectorum L.), green foxtail (Setaria viridis (L.) Beauv.), Italian ryegrass (Lolium multiflorum Lam.), wheat (Triticum aestivum L.), wild oat (Avenafatua L.) and windgrass (Apera spica-venti (L.) Beauv.) were treated with postemergence applications of some of the test chemicals formulated in the same manner. Plants ranged in height from 2 to 18 cm (1- to 4-leaf stage) for postemergence treatments. Plant species in the flooded paddy test consisted of rice (Oryza sativa), smallflower umbrella sedge (Cyperus difformis L.), ducksalad (Heteranthera limosa (Sw.) Willd.) and barnyardgrass (Echinochloa crus-galli (L.) Beauv.) grown to the 2-leaf stage for testing. Treated plants and controls were maintained in a greenhouse for 12 to 14 days, after which time all species were compared to controls and visually evaluated. Plant response ratings, summarized in Table C, are based on a scale of 0 to 100 where 0 is no effect and 100 is complete control. A dash (-) response means no test result.
# green foxtail [1] = assay: Test C postemergence herbicide test; type: in vivo, Setaria viridis
# Experimental: as §1
# winter barley = assay: Test C postemergence herbicide test; type: in vivo, Hordeum vulgare
# Experimental: as §1
# windgrass = assay: Test C postemergence herbicide test; type: in vivo, Apera spica-venti
# Experimental: as §1
# bermudagrass = assay: Test E pre-/postemergence herbicide test; type: in vivo, Cynodon dactylon; details: Preemergence
# Summary of the method: (§2)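 Each species was compared with untreated controls 12 to 14 days after greenhouse application and assigned a visual score from 0 (no effect) to 100 (complete control). Applications were preemergence to seeded soil or postemergence to 1- to 4-leaf plants, using a solvent-plus-surfactant formulation.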
# field bindweed = assay: Test E pre-/postemergence herbicide test; type: in vivo, Convolvulus arvensis; details: Preemergence
# Summary of the method: as §2
# Surinam grass = assay: Test E pre-/postemergence herbicide test; type: in vivo, Urochloa decumbens; details: Preemergence
# Summary of the method: as §2
# Canada horseweed = assay: Test E pre-/postemergence herbicide test; type: in vivo, Erigeron Canadensis; details: Preemergence
# Summary of the method: as §2
# guineagrass = assay: Test E pre-/postemergence herbicide test; type: in vivo, Panicum maximum; details: Preemergence
# Summary of the method: as §2
# southern sandbur = assay: Test E pre-/postemergence herbicide test; type: in vivo, Cenchrus echinatus; details: Preemergence
# Summary of the method: as §2
# broadleaf signalgrass = assay: Test E pre-/postemergence herbicide test; type: in vivo, Brachiaria platyphylla; details: Preemergence
# Summary of the method: as §2
# Italian ryegrass = assay: Test E pre-/postemergence herbicide test; type: in vivo, Lolium multiflorum; details: Preemergence
# Summary of the method: as §2
# dallisgrass = assay: Test E pre-/postemergence herbicide test; type: in vivo, Paspalum dilatatum; details: Preemergence
# Summary of the method: as §2
# green foxtail [2] = assay: Test E pre-/postemergence herbicide test; type: in vivo, Setaria viridis; details: Preemergence
# Summary of the method: as §2
# [3] = postemergence, 125 g ai/ha, scale 0 to 100
# [4] = postemergence, 62 g ai/ha, scale 0 to 100
# [5] = Postemergence, 250 g ai/ha, scale 0 to 100, 0 no effect, 100 complete control
# [6] = Postemergence, 125 g ai/ha, scale 0 to 100, 0 no effect, 100 complete control
# [7] = postemergence, 31 g ai/ha, scale 0 to 100
# [8] = postemergence, 62 g ai/ha, scale 0 to 100 (0 no effect, 100 complete control)
# [9] = 250 g ai/ha, scale 0 (no effect) to 100 (complete control)
# [10] = 500 g ai/ha, scale 0 (no effect) to 100 (complete control)
# [11] = Postemergence, 500 g ai/ha, scale 0 to 100, 0 no effect, 100 complete control
smiles,measurement,setting,value
CCOC(=O)c1cccc(NC(=O)c2nn(C(C)(C)CC)nc2CC)c1 [Compound 375],"Plant response rating, Oat, Wild",wild oat; [3],55
same,"Plant response rating, Oat, Wild",wild oat; [4],45
same,"Plant response rating, Foxtail, Green",green foxtail [1]; [5],65
same,"Plant response rating, Foxtail, Green",green foxtail [1]; [3],65
same,"Plant response rating, Foxtail, Green",green foxtail [1]; [4],50
same,"Plant response rating, Barley, Winter",winter barley; [6],30
same,"Plant response rating, Barley, Winter",winter barley; [5],40
same,"Plant response rating, Barley, Winter",winter barley; [7],10
same,"Plant response rating, Barley, Winter",winter barley; [8],20
same,"Plant response rating, Windgrass",windgrass; [3],60
same,"Plant response rating, Windgrass",windgrass; [4],40
CCc1nn(C(C)(C)C)nc1C(=O)Nc1cccc(C(=O)N(C)CC)c1 [Compound 384],"Plant response rating, Oat, Wild",wild oat; [3],45
same,"Plant response rating, Oat, Wild",wild oat; [4],35
same,"Plant response rating, Bermudagrass","bermudagrass; 62 g ai/ha, scale 0 to 100",80
same,"Plant response rating, Bermudagrass","bermudagrass; 125 g ai/ha, scale 0 to 100",95
same,"Plant response rating, Bermudagrass",bermudagrass; [9],95
same,"Plant response rating, Bermudagrass",bermudagrass; [10],95
same,"Plant response rating, Foxtail, Green",green foxtail [1]; [5],65
same,"Plant response rating, Foxtail, Green",green foxtail [1]; [3],60
same,"Plant response rating, Foxtail, Green",green foxtail [1]; [4],60
same,"Plant response rating, Bindweed, Field","field bindweed; 62 g ai/ha, scale 0 to 100",80
same,"Plant response rating, Bindweed, Field",field bindweed; [9],80
same,"Plant response rating, Bindweed, Field",field bindweed; [10],95
same,"Plant response rating, Surinam Grass","Surinam grass; 125 g ai/ha, scale 0 to 100",60
same,"Plant response rating, Surinam Grass",Surinam grass; [10],95
same,"Plant response rating, Horseweed","Canada horseweed; 125 g ai/ha, scale 0 to 100",75
same,"Plant response rating, Horseweed",Canada horseweed; [9],95
same,"Plant response rating, Horseweed",Canada horseweed; [10],100
same,"Plant response rating, Guineagrass","guineagrass; 62 g ai/ha, scale 0 to 100",95
same,"Plant response rating, Guineagrass","guineagrass; 125 g ai/ha, scale 0 to 100",95
same,"Plant response rating, Guineagrass",guineagrass; [9],95
same,"Plant response rating, Guineagrass",guineagrass; [10],100
same,"Plant response rating, Sandbur","southern sandbur; 62 g ai/ha, scale 0 to 100",10
same,"Plant response rating, Sandbur","southern sandbur; 125 g ai/ha, scale 0 to 100",60
same,"Plant response rating, Sandbur",southern sandbur; [9],70
same,"Plant response rating, Sandbur",southern sandbur; [10],100
same,"Plant response rating, Signalgrass","broadleaf signalgrass; 62 g ai/ha, scale 0 to 100",10
same,"Plant response rating, Signalgrass","broadleaf signalgrass; 125 g ai/ha, scale 0 to 100",70
same,"Plant response rating, Signalgrass",broadleaf signalgrass; [9],80
same,"Plant response rating, Signalgrass",broadleaf signalgrass; [10],80
same,"Plant response rating, Ryegrass, Italian","Italian ryegrass; 62 g ai/ha, scale 0 to 100",20
same,"Plant response rating, Ryegrass, Italian","Italian ryegrass; 125 g ai/ha, scale 0 to 100",75
same,"Plant response rating, Ryegrass, Italian",Italian ryegrass; [9],80
same,"Plant response rating, Ryegrass, Italian",Italian ryegrass; [10],95
same,"Plant response rating, Dallisgrass","dallisgrass; 62 g ai/ha, scale 0 to 100",10
same,"Plant response rating, Dallisgrass","dallisgrass; 125 g ai/ha, scale 0 to 100",70
same,"Plant response rating, Dallisgrass",dallisgrass; [9],75
same,"Plant response rating, Dallisgrass",dallisgrass; [10],90
same,"Plant response rating, Foxtail, Green","green foxtail [2]; 62 g ai/ha, scale 0 to 100",10
same,"Plant response rating, Foxtail, Green",green foxtail [2]; [9],40
same,"Plant response rating, Foxtail, Green",green foxtail [2]; [10],95
same,"Plant response rating, Barley, Winter",winter barley; [6],35
same,"Plant response rating, Barley, Winter",winter barley; [5],35
same,"Plant response rating, Barley, Winter",winter barley; [7],0
same,"Plant response rating, Barley, Winter",winter barley; [8],10
same,"Plant response rating, Windgrass",windgrass; [3],45
same,"Plant response rating, Windgrass",windgrass; [4],45
CCc1nn(C(C)(C)C)nc1C(=O)Nc1cccc(C(=S)N(C)C)c1 [Compound 395],"Plant response rating, Bermudagrass","bermudagrass; 62 g ai/ha, scale 0 to 100",90
same,"Plant response rating, Bermudagrass","bermudagrass; 125 g ai/ha, scale 0 to 100",95
same,"Plant response rating, Bermudagrass",bermudagrass; [9],95
same,"Plant response rating, Bermudagrass",bermudagrass; [10],95
same,"Plant response rating, Bindweed, Field","field bindweed; 62 g ai/ha, scale 0 to 100",10
same,"Plant response rating, Bindweed, Field","field bindweed; 125 g ai/ha, scale 0 to 100",40
same,"Plant response rating, Bindweed, Field",field bindweed; [9],60
same,"Plant response rating, Bindweed, Field",field bindweed; [10],70
same,"Plant response rating, Surinam Grass","Surinam grass; 125 g ai/ha, scale 0 to 100",75
same,"Plant response rating, Surinam Grass",Surinam grass; [10],90
same,"Plant response rating, Horseweed","Canada horseweed; 62 g ai/ha, scale 0 to 100",90
same,"Plant response rating, Horseweed","Canada horseweed; 125 g ai/ha, scale 0 to 100",100
same,"Plant response rating, Horseweed",Canada horseweed; [9],100
same,"Plant response rating, Horseweed",Canada horseweed; [10],100
same,"Plant response rating, Guineagrass","guineagrass; 62 g ai/ha, scale 0 to 100",80
same,"Plant response rating, Guineagrass","guineagrass; 125 g ai/ha, scale 0 to 100",100
same,"Plant response rating, Guineagrass",guineagrass; [9],100
same,"Plant response rating, Guineagrass",guineagrass; [10],100
same,"Plant response rating, Sandbur","southern sandbur; 62 g ai/ha, scale 0 to 100",50
same,"Plant response rating, Sandbur","southern sandbur; 125 g ai/ha, scale 0 to 100",60
same,"Plant response rating, Sandbur",southern sandbur; [9],80
same,"Plant response rating, Sandbur",southern sandbur; [10],80
same,"Plant response rating, Signalgrass","broadleaf signalgrass; 62 g ai/ha, scale 0 to 100",10
same,"Plant response rating, Signalgrass","broadleaf signalgrass; 125 g ai/ha, scale 0 to 100",75
same,"Plant response rating, Signalgrass",broadleaf signalgrass; [9],85
same,"Plant response rating, Signalgrass",broadleaf signalgrass; [10],90
same,"Plant response rating, Ryegrass, Italian","Italian ryegrass; 62 g ai/ha, scale 0 to 100",20
same,"Plant response rating, Ryegrass, Italian","Italian ryegrass; 125 g ai/ha, scale 0 to 100",80
same,"Plant response rating, Ryegrass, Italian",Italian ryegrass; [9],90
same,"Plant response rating, Ryegrass, Italian",Italian ryegrass; [10],95
same,"Plant response rating, Dallisgrass","dallisgrass; 62 g ai/ha, scale 0 to 100",50
same,"Plant response rating, Dallisgrass","dallisgrass; 125 g ai/ha, scale 0 to 100",70
same,"Plant response rating, Dallisgrass",dallisgrass; [9],90
same,"Plant response rating, Dallisgrass",dallisgrass; [10],90
same,"Plant response rating, Foxtail, Green","green foxtail [2]; 62 g ai/ha, scale 0 to 100",10
same,"Plant response rating, Foxtail, Green","green foxtail [2]; 125 g ai/ha, scale 0 to 100",40
same,"Plant response rating, Foxtail, Green",green foxtail [2]; [9],80
same,"Plant response rating, Foxtail, Green",green foxtail [2]; [10],90
C=CCNC(=O)c1cccc(NC(=O)c2nn(C(C)(C)C)nc2CC)c1 [Compound 414],"Plant response rating, Oat, Wild",wild oat; [11],55
same,"Plant response rating, Oat, Wild",wild oat; [3],45
same,"Plant response rating, Oat, Wild",wild oat; [4],35
same,"Plant response rating, Foxtail, Green",green foxtail [1]; [5],65
same,"Plant response rating, Foxtail, Green",green foxtail [1]; [11],65
same,"Plant response rating, Foxtail, Green",green foxtail [1]; [3],60
same,"Plant response rating, Foxtail, Green",green foxtail [1]; [4],60
same,"Barley, Winter plant response rating","winter barley; Postemergence, 500 g ai/ha, scale 0 to 100",45
same,"Plant response rating, Barley, Winter",winter barley; [6],30
same,"Plant response rating, Barley, Winter",winter barley; [5],45
same,"Plant response rating, Barley, Winter",winter barley; [8],10
same,"Plant response rating, Windgrass",windgrass; [11],65
same,"Plant response rating, Windgrass",windgrass; [3],60
same,"Plant response rating, Windgrass",windgrass; [4],55
